Source: patent publication US10196403B2, “Compounds and compositions and uses thereof” (Sunovion Pharmaceuticals Inc., priority 2016, dated 2019)

System: mice
Experiment: Neuropharmacological Assay (SmartCube)
Type: in vivo
Settings: for minimal effective dose: Mus musculus, MED = dose having 50% or more total activity in SmartCube, read-out: POTENCY (minimal effective dose, MED); for AD: ADHD (SmartCube probability) / AG: analgesic (SmartCube probability) / AX: anxiolytic (SmartCube probability) / CE: cognitive enhancer (SmartCube probability) / DP: anti-depressant (SmartCube probability) / MS: mood stabilizer (SmartCube probability) / PS: anti-psychotic (SmartCube probability) / SD: sedative hypnotic (SmartCube probability) / UN: uncharacterized CNS activity (SmartCube probability): mice, i.p. 15 min before test, most efficacious dose(s) of 3 doses
Summary of the method: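 Behavior of treated mice captured by digital video and matched algorithmically against reference drug classes, yielding a class probability at the most efficacious of 3 i.p. doses (15 min pretreatment, NMP/PEG/propylene glycol vehicle). Potency given as MED, the mpk dose reaching ≥50% total activity across usually 0.3–30 mpk.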

Structure (SMILES) | minimal effective dose | AD: ADHD (SmartCube probability) | AG: analgesic (SmartCube probability) | AX: anxiolytic (SmartCube probability) | CE: cognitive enhancer (SmartCube probability) | DP: anti-depressant (SmartCube probability) | MS: mood stabilizer (SmartCube probability) | PS: anti-psychotic (SmartCube probability) | SD: sedative hypnotic (SmartCube probability) | UN: uncharacterized CNS activity (SmartCube probability)
NC[C@@H]1OCCc2cc(F)ccc21 [Example 34, (R)-(6-fluoroisochroman-1-yl)methanamine] | < 3 mg/kg | + (LOQ≤ + <5%) | ++ (5%≤ ++ <25%) | ++ (5%≤ ++ <25%) | ++ (5%≤ ++ <25%) | ++ (5%≤ ++ <25%) | ++ (5%≤ ++ <25%) | +++ (25%≤ +++ <50%) | + (LOQ≤ + <5%) | +++ (25%≤ +++ <50%)
NC[C@@H]1OCCc2cccc(F)c21 [Example 35, (R)-(8-fluoroisochroman-1-yl)methanamine] | < 3 mg/kg | ++ (5%≤ ++ <25%) | ++ (5%≤ ++ <25%) | ++ (5%≤ ++ <25%) | ++ (5%≤ ++ <25%) | ++++ (50%≤ ++++) | + (LOQ≤ + <5%) | ++ (5%≤ ++ <25%) | ++ (5%≤ ++ <25%) | ++++ (50%≤ ++++)
CNC[C@H]1OCCc2cccc(Cl)c21 [Example 36, (S)-1-(8-chloroisochroman-1-yl)-N-methylmethanamine] | 3 to 10 mg/kg | + (LOQ≤ + <5%) | + (LOQ≤ + <5%) | ++ (5%≤ ++ <25%) | ++ (5%≤ ++ <25%) | + (LOQ≤ + <5%) | + (LOQ≤ + <5%) | ++ (5%≤ ++ <25%) | + (LOQ≤ + <5%) | +++ (25%≤ +++ <50%)
CNC[C@@H]1OCCc2cccc(Cl)c21 [Example 37, (R)-1-(8-chloroisochroman-1-yl)-N-methylmethanamine] | < 3 mg/kg | + (LOQ≤ + <5%) | ++ (5%≤ ++ <25%) | + (LOQ≤ + <5%) | ++ (5%≤ ++ <25%) | ++ (5%≤ ++ <25%) | + (LOQ≤ + <5%) | ++ (5%≤ ++ <25%) | + (LOQ≤ + <5%) | ++++ (50%≤ ++++)
CNC[C@H]1OCCc2c(C)cccc21 [Example 38, (S)-N-methyl-1-(5-methylisochroman-1-yl)methanamine] | < 3 mg/kg | + (LOQ≤ + <5%) | ++ (5%≤ ++ <25%) | ++ (5%≤ ++ <25%) | + (LOQ≤ + <5%) | ++ (5%≤ ++ <25%) | + (LOQ≤ + <5%) | ++ (5%≤ ++ <25%) | ++ (5%≤ ++ <25%) | +++ (25%≤ +++ <50%)
CNC[C@@H]1OCCc2c(C)cccc21 [Example 39, (R)-N-methyl-1-(5-methylisochroman-1-yl)methanamine] | < 3 mg/kg | + (LOQ≤ + <5%) | ++ (5%≤ ++ <25%) | ++ (5%≤ ++ <25%) | ++ (5%≤ ++ <25%) | ++++ (50%≤ ++++) | + (LOQ≤ + <5%) | ++ (5%≤ ++ <25%) | + (LOQ≤ + <5%) | +++ (25%≤ +++ <50%)
CNC[C@H]1OCCc2cccc(C)c21 [Example 40, (S)-N-methyl-1-(8-methylisochroman-1-yl)methanamine] | < 3 mg/kg | + (LOQ≤ + <5%) | + (LOQ≤ + <5%) | +++ (25%≤ +++ <50%) | + (LOQ≤ + <5%) | ++ (5%≤ ++ <25%) | + (LOQ≤ + <5%) | ++ (5%≤ ++ <25%) | ++ (5%≤ ++ <25%) | +++ (25%≤ +++ <50%)
CNC[C@@H]1OCCc2cccc(C)c21 [Example 41, (R)-N-methyl-1-(8-methylisochroman-1-yl)methanamine] | < 3 mg/kg | + (LOQ≤ + <5%) | ++ (5%≤ ++ <25%) | ++ (5%≤ ++ <25%) | + (LOQ≤ + <5%) | ++ (5%≤ ++ <25%) | + (LOQ≤ + <5%) | ++++ (50%≤ ++++) | ++ (5%≤ ++ <25%) | ++++ (50%≤ ++++)
CNC[C@H]1OCCc2cccc(C#N)c21 [Example 44, (S)-1-((methylamino)methyl)isochromane-8-carbonitrile] | 3 to 10 mg/kg | + (LOQ≤ + <5%) | ++ (5%≤ ++ <25%) | ++ (5%≤ ++ <25%) | ++ (5%≤ ++ <25%) | + (LOQ≤ + <5%) | + (LOQ≤ + <5%) | ++ (5%≤ ++ <25%) | + (LOQ≤ + <5%) | +++ (25%≤ +++ <50%)
CNC[C@@H]1OCCc2cccc(C#N)c21 [Example 45, (R)-1-((methylamino)methyl)isochromane-8-carbonitrile] | 3 to 10 mg/kg | + (LOQ≤ + <5%) | ++ (5%≤ ++ <25%) | ++ (5%≤ ++ <25%) | ++ (5%≤ ++ <25%) | + (LOQ≤ + <5%) | + (LOQ≤ + <5%) | ++ (5%≤ ++ <25%) | + (LOQ≤ + <5%) | ++++ (50%≤ ++++)
CNC[C@H]1OCCc2c(C#N)cccc21 [Example 46, (S)-1-((methylamino)methyl)isochromane-5-carbonitrile] | 3 to 10 mg/kg | + (LOQ≤ + <5%) | + (LOQ≤ + <5%) | ++ (5%≤ ++ <25%) | ++ (5%≤ ++ <25%) | ++ (5%≤ ++ <25%) | + (LOQ≤ + <5%) | ++ (5%≤ ++ <25%) | ++ (5%≤ ++ <25%) | +++ (25%≤ +++ <50%)
